According to patent US20080286216A1, “Surface Active Calcium Phosphates” (priority 2005, published 2008):

What was measured:
[1] = system: people living in fluoridated areas; details: fluoride in drinking water; cited from earlier work
[2] = system: human dental plaque microcosm biofilms; test: Tooth remineralisation: mineral deposition in dental plaque microcosm biofilms (Wong et al. method); assay type: cell-based; details: conclusion of Example 16
Procedure: This example investigated the tooth remineralisation properties of a complex according to the invention.
BMM: basal medium mucin models the nutrients present in saliva and was prepared following Wong et al, “Calcium phosphate deposition in human dental plaque microcosm biofilms induced by a ureolytic pH-rise procedure” Archives of Oral Biology 47 (2002) 779-790
The complex according to the invention was tested for its tooth remineralisation properties using the methodology described in Wong et al, “Calcium phosphate deposition in human dental plaque microcosm biofilms induced by a ureolytic pH-rise procedure” Archives of Oral Biology 47 (2002) 779-790.
Ca & P units: mmol/g protein, F units: μmol/g protein
Mineralisation regime: 14 days mineralisation; 3 doses of testing composition and 10% sucrose daily

## F [fluoride]
[1]
  aesthetically unacceptable changes to the appearance of teeth: at least 12.5%
  incidence of fluorosis: ≤ 48%

## Stearamidopropyl Dimethylamine Glycerophosphate [Example 14]
[2]
  tooth remineralisation properties: has tooth remineralisation properties
